Among the data in patent US20260092076A1, “NOVEL COMPOUNDS” (Hoffmann-La Roche Inc., priority 2023, published 2026) are IC50 values, retold here.

The IC50 is the concentration that inhibits the measured activity by half. Read a high IC50 as weaker potency in that assay.

For experiment [1], the target named is T1, NLRP3 (Homo sapiens, UniProt Q96P20). The experiment in a line: Human whole blood IL-1β release assay. The format is cell-based. The note with it: human whole blood with 1 μg/ml LPS, compound 3 hours, nigericin 10 μM 1 hr, IL-1β by AlphaLisa. As to the method: For systemic delivery, the ability to inhibit NLRP3 when the compounds are present within the bloodstream is of great importance. For this reason, the NLRP3 inhibitory activity of a number of compounds in human whole blood was investigated in accordance with the following protocol. • Human whole blood in Li-heparin tubes was obtained from healthy donors from a volunteer donor panel. • Plate out 80 μl of whole blood containing 1 μg/ml of LPS in 96-well, clear bottom cell culture plate (Corning #3585) • Add 10 μl compound (8 points half-log dilution with 10 μM top dose) or vehicle (DMSO 0.1% FAC) to the appropriate wells • Incubate for 3 hours at 37° C., 5% CO2 • Add 10 μl nigericin (Sigma #N7143) (10 μM FAC) to all wells • Incubate for 1 hr at 37° C., 5% CO2 • At the end of the incubation period, spin plates at 300×g for 5 mins to pellet cells and remove 20 μl of supernatant and add to 96-well v-bottom plates for IL-1β analysis (note: these plates containing the supernatants can be stored at −80° C. to be analysed at a later date) • IL-1β was measured according to the manufacturer protocol (Perkin Elmer-AlphaLisa IL-1 Kit AL220F-5000) • IC50 data is fitted to a non-linear regression equation (log inhibitor vs response-variable slope 4-parameters)
(In Alpha technology, singlet oxygen from a donor bead excites a nearby acceptor bead.)

The target of experiment [2] is T1, NLRP3. The experiment in a line: THP-1 cells pyroptosis assay. The format is cell-based. Set-up: Seed THP-1 cells (25,000 cells/well) containing 1.0 μg/ml LPS in 40 μl of RPMI medium; host or cells: THP-1 cells, LPS-primed, nigericin-stimulated. Particulars: THP-1 cells with 1.0 μg/ml LPS, compound 3 hours, nigericin 5 μM 1 hr, resazurin readout. As to the method:
THP-1 cells (ATCC #TIB-202) were grown in RPMI containing L-glutamine (Gibco #11835) supplemented with 1 mM sodium pyruvate (Sigma #S8636) and penicillin (100 units/ml)/streptomycin (0.1 mg/ml) (Sigma #P4333) in 10% Fetal Bovine Serum (FBS) (Sigma #F0804). The cells were routinely passaged and grown to confluency (˜10^6 cells/ml). On the day of the experiment, THP-1 cells were harvested and resuspended into RPMI medium (without FBS). The cells were then counted and viability (>90%) checked by Trypan blue (Sigma #T8154). Appropriate dilutions were made to give a concentration of 625,000 cells/ml. To this diluted cell solution was added LPS (Sigma #L4524) to give a 1 μg/ml Final Assay Concentration (FAC). 40 μl of the final preparation was aliquoted into each well of a 96-well plate. The plate thus prepared was used for compound screening.
The following method step-by-step assay was followed for compound screening. • Seed THP-1 cells (25,000 cells/well) containing 1.0 μg/ml LPS in 40 μl of RPMI medium (without FBS) in 96-well, black walled, clear bottom cell culture plates coated with poly-D-lysine (VWR #734-0317) • Add 5 μl compound (8 points half-log dilution, with 10 μM top dose) or vehicle (DMSO 0.1% FAC) to the appropriate wells • Incubate for 3 hours at 37° C., 5% CO2 • Add 5 μl nigericin (Sigma #N7143) (FAC 5 μM) to all wells • Incubate for 1 hr at 37° C., 5% CO2 • At the end of the incubation period, spin plates at 300×g for 3 mins and remove supernatant • Then add 50 μl of resazurin (Sigma #R7017) (FAC 100 μM resazurin in RPMI medium without FBS) and incubate plates for a further 1-2 hours at 37° C. and 5% CO2 • Plates were read in an Envision reader at Ex 560 nm and Em 590 nm • IC50 data is fitted to a non-linear regression equation (log inhibitor vs response-variable slope 4-parameters)

T1 sequence (Q96P20 whole entry): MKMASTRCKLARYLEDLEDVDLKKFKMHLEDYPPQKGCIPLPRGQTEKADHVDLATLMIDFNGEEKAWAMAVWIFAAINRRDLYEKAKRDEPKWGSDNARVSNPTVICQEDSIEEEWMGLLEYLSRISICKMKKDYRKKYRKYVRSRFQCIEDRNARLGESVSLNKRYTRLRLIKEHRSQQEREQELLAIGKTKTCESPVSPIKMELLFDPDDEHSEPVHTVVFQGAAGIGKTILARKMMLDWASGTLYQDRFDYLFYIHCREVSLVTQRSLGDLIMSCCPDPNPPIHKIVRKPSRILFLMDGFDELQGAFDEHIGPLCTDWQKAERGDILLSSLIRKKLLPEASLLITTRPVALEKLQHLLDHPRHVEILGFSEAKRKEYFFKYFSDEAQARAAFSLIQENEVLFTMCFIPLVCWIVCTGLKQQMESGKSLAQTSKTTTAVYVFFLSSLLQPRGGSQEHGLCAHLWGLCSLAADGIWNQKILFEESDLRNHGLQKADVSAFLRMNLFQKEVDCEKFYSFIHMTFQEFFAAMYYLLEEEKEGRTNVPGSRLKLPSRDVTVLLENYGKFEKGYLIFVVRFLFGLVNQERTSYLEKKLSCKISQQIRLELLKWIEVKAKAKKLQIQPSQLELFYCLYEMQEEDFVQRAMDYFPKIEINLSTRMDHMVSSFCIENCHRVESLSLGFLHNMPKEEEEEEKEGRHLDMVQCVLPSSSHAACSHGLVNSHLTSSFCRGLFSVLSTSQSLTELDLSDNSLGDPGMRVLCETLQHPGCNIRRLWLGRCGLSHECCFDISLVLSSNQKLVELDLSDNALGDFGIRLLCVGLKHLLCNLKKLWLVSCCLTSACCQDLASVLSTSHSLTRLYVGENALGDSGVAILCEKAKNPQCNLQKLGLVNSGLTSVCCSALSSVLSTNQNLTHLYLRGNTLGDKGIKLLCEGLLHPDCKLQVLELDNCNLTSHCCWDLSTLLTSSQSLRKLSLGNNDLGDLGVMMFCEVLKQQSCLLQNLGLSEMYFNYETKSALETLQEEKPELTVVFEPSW

On to `Cc1cc(C(F)(F)F)cc(O)c1-c1ccc2oc(N3Cc4ccc(=O)[nH]c4C3)nc2n1` [Example 20, 6-[5-[2-Hydroxy-6-methyl-4-(trifluoromethyl)phenyl]oxazolo[4,5-b]pyridin-2-yl]-5,7-dihydro-1H-pyrrolo[3,4-b]pyridin-2-one], for which the IC50 in experiment [1] was 1450 nM; in experiment [2], 4.2 nM.
For the molecule `Cc1cc(Cl)cc(O)c1-c1ccc2oc(N3Cc4ccncc4C3)nc2n1` [Example 7, 5-chloro-2-[2-(1,3-dihydropyrrolo[3,4-c]pyridin-2-yl)oxazolo[4,5-b]pyridin-5-yl]-3-methyl-phenol], the IC50 in experiment [1] was 487 nM; in experiment [2], 9.5 nM.
Regarding `Cc1cc(C#N)cc(O)c1-c1ccc2oc(N3Cc4c[nH]c(=O)cc4C3)nc2n1` [Example 3, 3-Hydroxy-5-methyl-4-[2-(6-oxo-3,5-dihydro-1H-pyrrolo[3,4-c]pyridin-2-yl)oxazolo[4,5-b]pyridin-5-yl]benzonitrile], the IC50 in experiment [1] was determined as 117 nM; in experiment [2], 7.7 nM.
For the molecule `Cc1cc(C(F)F)cc(O)c1-c1ccc2oc(N3CCc4ncncc4C3)nc2n1` [Example 26, 5-(Difluoromethyl)-2-[2-(7,8-dihydro-5H-pyrido[4,3-d]pyrimidin-6-yl)oxazolo[4,5-b]pyridin-5-yl]-3-methyl-phenol], the figures for the IC50 in experiment [1] and in experiment [2] were 166 nM and 46.7 nM, respectively.
As to `Cc1cc(C#N)cc(O)c1-c1ccc2oc(N3Cc4ccccc4C3)nc2n1` [Example 16, 3-Hydroxy-4-(2-isoindolin-2-yloxazolo[4,5-b]pyridin-5-yl)-5-methyl-benzonitrile], the 50% inhibitory concentration (IC50) in experiment [2] worked out at 66 nM.
In the case of `Cc1cc(C(F)(F)F)cc(O)c1-c1ccc2oc(N3CCc4ncncc4C3)nc2n1` [Example 24, 2-[2-(7,8-Dihydro-5H-pyrido[4,3-d]pyrimidin-6-yl)oxazolo[4,5-b]pyridin-5-yl]-3-methyl-5-(trifluoromethyl)phenol], the IC50 in experiment [1] was found to be 192 nM; in experiment [2], 23.6 nM.
`COc1cccc2c1CCN(c1nc3nc(-c4c(C)cc(Cl)cc4O)ccc3o1)C2` [Example 34, 5-chloro-2-[2-(5-methoxy-3,4-dihydro-1H-isoquinolin-2-yl)oxazolo[4,5-b]pyridin-5-yl]-3-methyl-phenol] displayed a concentration for half-maximal inhibition (IC50) in experiment [2] of 675 nM.
Take `Cc1cc(C#N)cc(O)c1-c1ccc2oc(N3Cc4ccncc4C3)nc2n1` [Example 10, 4-[2-(1,3-Dihydropyrrolo[3,4-c]pyridin-2-yl)oxazolo[4,5-b]pyridin-5-yl]-3-hydroxy-5-methyl-benzonitrile]: the figures for the IC50 in experiment [1] and in experiment [2] were 2230 nM and 29 nM, respectively.
As for `Cc1cc(C(F)(F)F)cc(O)c1-c1ccc2oc(N3Cc4ccc(=O)n(C)c4C3)nc2n1` [Example 21, 6-[5-[2-Hydroxy-6-methyl-4-(trifluoromethyl)phenyl]oxazolo[4,5-b]pyridin-2-yl]-1-methyl-5,7-dihydropyrrolo[3,4-b]pyridin-2-one], the IC50 in experiment [1] came to 1960 nM; in experiment [2], 22.3 nM.
On to `Cc1cc(C(F)(F)F)cc(O)c1-c1ccc2oc(N3Cc4nccnc4C3)nc2n1` [Example 23, 2-[2-(5,7-Dihydropyrrolo[3,4-b]pyrazin-6-yl)oxazolo[4,5-b]pyridin-5-yl]-3-methyl-5-(trifluoromethyl)phenol], for which, in experiment [1], the 50% inhibitory concentration (IC50) stood at 3720 nM.
On to `Cc1cc(Cl)cc(O)c1-c1cnc2oc(N3Cc4ccncc4C3)nc2n1` [Example 29, 5-Chloro-2-[2-(1,3-dihydropyrrolo[3,4-c]pyridin-2-yl)oxazolo[4,5-b]pyrazin-5-yl]-3-methyl-phenol; formic acid], for which the IC50 worked out at 35.9 nM in experiment [1] and 2.1 nM in experiment [2].
The like results for `COc1ncc2c(n1)CCN(c1nc3nc(-c4c(C)cc(Cl)cc4O)ccc3o1)C2` [Example 32, 5-Chloro-2-[2-(2-methoxy-7,8-dihydro-5H-pyrido[4,3-d]pyrimidin-6-yl)oxazolo[4,5-b]pyridin-5-yl]-3-methyl-phenol] were, in that order, 285 nM and 24.9 nM.
In the case of `Cc1cc(Cl)cc(O)c1-c1ccc2oc(N3Cc4c[nH]c(=O)cc4C3)nc2n1` [Example 4, 2-[5-(4-Chloro-2-hydroxy-6-methyl-phenyl)oxazolo[4,5-b]pyridin-2-yl]-3,5-dihydro-1H-pyrrolo[3,4-c]pyridin-6-one], the IC50 in experiment [1] turned out to be 77 nM; in experiment [2], 1.7 nM.
Consider `Cc1cc(Cl)cc(O)c1-c1ccc2oc(N3Cc4ccccc4C3)nc2n1` [Example 6, 5-Chloro-2-(2-isoindolin-2-yloxazolo[4,5-b]pyridin-5-yl)-3-methyl-phenol], for which, in experiment [2], half-maximal inhibition (IC50) was put at 90 nM.
Consider `Cc1cc(C(F)(F)F)cc(O)c1-c1ccc2oc(N3Cc4c[nH]c(=O)cc4C3)nc2n1` [Example 1, 2-[5-[2-Hydroxy-6-methyl-4-(trifluoromethyl)phenyl]oxazolo[4,5-b]pyridin-2-yl]-3,5-dihydro-1H-pyrrolo[3,4-c]pyridin-6-one], for which the IC50 in experiment [1] worked out at 108 nM; in experiment [2], 0.7 nM.
In turn, `Cc1cc(Cl)cc(O)c1-c1ccc2oc(N3Cc4ccc(O)cc4C3)nc2n1` [Example 8, 2-[5-(4-Chloro-2-hydroxy-6-methyl-phenyl)oxazolo[4,5-b]pyridin-2-yl]isoindolin-5-ol] registered an IC50 in experiment [2] of 69.9 nM.
For the molecule `Cc1cc(Cl)cc(O)c1-c1ccc2oc(N3Cc4cccc(F)c4C3)nc2n1` [Example 9, 5-Chloro-2-[2-(4-fluoroisoindolin-2-yl)oxazolo[4,5-b]pyridin-5-yl]-3-methyl-phenol], the IC50 in experiment [2] was determined as 263 nM.
Consider `Cc1cc(Cl)cc(O)c1-c1ccc2oc(N3Cc4ccc5c(c4C3)OCO5)nc2n1` [Example 42, 5-Chloro-2-(2-(6,8-dihydro-7H-[1,3]dioxolo[4,5-e]isoindol-7-yl)oxazolo[4,5-b]pyridin-5-yl)-3-methylphenol], for which, in experiment [2], the midpoint of inhibition, the IC50, lay at 144 nM.
Same read-out and setting: to `Cc1cc(Cl)cc(O)c1-c1ccc2oc(N3CCc4nccnc4C3)nc2n1` [Example 40, 5-Chloro-2-[2-(7,8-dihydro-5H-pyrido[3,4-b]pyrazin-6-yl)oxazolo[4,5-b]pyridin-5-yl]-3-methyl-phenol] belongs 71.6 nM; to `Cc1cc(Cl)cc(O)c1-c1ccc2oc(N3CCc4c(C#N)cccc4C3)nc2n1` [Example 33, 2-(5-(4-Chloro-2-hydroxy-6-methylphenyl)oxazolo[4,5-b]pyridin-2-yl)-1,2,3,4-tetrahydroisoquinoline-5-carbonitrile], 447 nM; to `Cc1cc(C(F)(F)F)cc(O)c1-c1ccc2oc(N3CCc4nc[nH]c(=O)c4C3)nc2n1` [Example 41, 6-[5-[2-Hydroxy-6-methyl-4-(trifluoromethyl)phenyl]oxazolo[4,5-b]pyridin-2-yl]-3,5,7,8-tetrahydropyrido[4,3-d]pyrimidin-4-one], 174 nM.
Still for that read-out and setting: to `Cc1cc(Cl)cc(O)c1-c1ccc2oc(N3CCc4ccc(F)cc4C3)nc2n1` [Example 35, 5-Chloro-2-[2-(7-fluoro-3,4-dihydro-1H-isoquinolin-2-yl)oxazolo[4,5-b]pyridin-5-yl]-3-methyl-phenol] belongs 236 nM.
Still for that read-out and setting: the result for `Cc1cc(C(F)(F)F)cc(O)c1-c1ccc2oc(N3Cc4[nH]c(=O)[nH]c(=O)c4C3)nc2n1` [Example 44, 6-[5-[2-Hydroxy-6-methyl-4-(trifluoromethyl)phenyl]oxazolo[4,5-b]pyridin-2-yl]-5,7-dihydro-1H-pyrrolo[3,4-d]pyrimidine-2,4-dione] reads 245 nM.
